# Columns and labels:
# cucumber seeds = assay: Greenhouse assay of seed germination and phytotoxicity, soil treated with plant extract alone; details: in vivo
# Protocol: Soil treatment: For each treatment, 300 g of dry greenhouse soli (Pro-mix, Premier Horticulture LTD, Red Hill, Pa.) was thoroughly mixed with Rhizoctonia inoculum and incubated for 15 days as described above. […] The infested soil treated with only the carrier solution served as an untreated control. Following the treatment, the soil was thoroughly stirred to mix the contents and incubated in a double polythene bag closed tightly in the dark at room temperature for four days for fumigation to occur. Following the incubation, the bag was opened to allow as much PE to dissipate as possible. This was done by sprinkling the surface soil with sterile water every other day, and stirring the soil once every day for seven days. For assay of effect on seed germination and phytotoxicity of the plant extracts, soil was treated with plant extract formulations alone.
# Greenhouse studies: Treated soil from each treatment was distributed to 4-inch plastic pots into which 12 seeds of cucumbers (95-100% germination) were sown and lightly watered to keep soil moist. The treatments were color coded and pots were randomized across treatment. All plants were kept in a greenhouse between 20° C. (night) to 26° C. (day) with 14 h of light. There were three pots per treatment in each experiment, and the experiment was repeated three times. As positive control, a broad spectrum popular soil fungicide Banrot® 40 WP (The Scotts Company, Ohio) was used following manufacturer's recommendation to control the disease. Total number of seedlings without any sign of damping off in each pot was recorded and percentage of disease suppression were calculated four weeks after sowing cucumber seeds.
# Rhizoctonia solani [1] = assay: Greenhouse suppression of damping off of cucumber seedlings in R. solani infested soil amended with plant extract; type: in vivo, Rhizoctonia solani AG-4, isolate Rs 23A; details: for % Disease suppression (+ PE + R. solani): cucumber damping off, soil amendment at 0.3% (v/w), four weeks after sowing; for Avg. seed Germination (+ PE + R. solani): cucumber, 12 seeds sown per pot, infested soil amended with 0.3% PE
# Rhizoctonia solani [2] = assay: Fungicidal vs fungistatic potential (regrowth of mycelial plugs on fresh PDA, 7 days); type: cell-based, Rhizoctonia solani AG-4, isolate Rs 23A
# Protocol: The fungicidal and fungistatic potential of the PEs were determined by the method described by Garber and Houstan (Garber R. H., and B. R. Houston, Phytopathology, 49: 449-450 (1959)). In brief, three 5 mm diameter plugs were taken from the peripheral mycelial growth from each plate and placed in a fresh PDA plate. Following incubation at room temperature for 7 days, observations were recorded for new mycelial growth (fungistatic) or no mycelial growth (fungicidal). As control, peripheral mycelial plugs from soybean oil amended PDA plates were checked for fresh mycelial growth in fresh PDA plates.
# Rhizoctonia solani [3] = assay: Filter disk fumigation method, mycelial growth inhibition on PDA; type: cell-based, Rhizoctonia solani AG-4, isolate Rs 23A; details: for Fumig1 % inhibition: fumigation experiment 1; for Fumig2 % inhibition: fumigation experiment 2; for Inhibition of R. solani growth by fumigation action, in words: in vitro, filter disk
# Protocol: (§1) Fungal isolate and preparation of inoculum: Rhizoctonia solani AG-4, isolate Rs 23A is a highly virulent pathogenic isolate which infects many vegetables, ornamentals and turfgrasses (Lewis, J. A., and G. C. Papavizas, Soil Biology and Biochemistry, 9:195-201 (1987)). The fungus was grown in potato dextrose agar (PDA) plates and fungal plugs from the freshly growing mycelium were mixed with moist sterilized cracked wheat in a 2 L flask for 15 days in dark at 22° C. (Lakshman, D. K., et al., Proceedings of the National Academy of Science, USA, 95: 6425-6429 (1998)). The infested wheat was air dried in a sterile hood for 3 days, blended in a homogenizer and sieved through a mesh and stored at 2° C. before soil inoculation. A dose response of the inocula was carried out by thoroughly mixing using 0.25, 0.5, 0.75, 1.0, 1.25 and 1.50 g inoculums per Kg dry weight potting soil plus sterile water to maintain 25-30% moisture and incubating at room temperature for two weeks before sowing cucumber (cv muncher) seeds with the infested soil. The percent germination and post-emergence damping off of cucumber seedlings were recorded. The lowest inoculums dose that induced 100% postemergence damping off was estimated to be 1 to 1.25 g/Kg soil for inocula prepared over the span of the experiments. For soil fumigation with plant extracts (PEs), each time the minimum inoculum dose giving rise to 100% damping off was used.
# In the second protocol, the chemical was kept not in direct contact with the fungus and we hypothesized that the plant extract will most likely influence the growth of the pathogen by fumigation action. In this approach, three sterile 15 mm filter paper (Whatman International Ltd, Maidstone, UK) disks were placed on the edge of each of three plates on the PDA. Each disk was impregnated in the center with various amounts (5-50 ul/disk) of the test solution/suspension. For negative control, only soybean oil was placed in the filter disk. […] The average radial growth was calculated and the experiment was repeated one more time. Percent growth inhibition was calculated as reported for poison bed assay.
# Rhizoctonia solani [4] = assay: Poison food technique (contact action), mycelial growth inhibition in PDA; type: cell-based, Rhizoctonia solani AG-4, isolate Rs 23A; details: for PoisonB1 % inhibition: poison bed experiment 1; for PoisonB2 % inhibition: poison bed experiment 2; for Inhibition of R. solani growth by contact (poison bed assay), in words: in vitro, PDA
# Protocol: as §1
# In vitro bioassays: Two in vitro bioassay methods were used to investigate the mycelial growth inhibitory potentials of PEs. In the poison food technique, test chemical/plant extract was mixed at concentrations of 15, 30, 45, 60, 75, and 150 μl per 20 ml autoclaved PDA at 50° C., poured on three sterile disposable plastic plates (100×15 mm, Fisherbrand) at 20 ml/plate and cooled to room temperature to solidify (Dhingra, O.D., and J. B. Sinclair, 1995, Basic Plant Pathology Methods, 2nd Edition, Lewis Publishers, Boca Raton and London). […] Each plate was seeded in the center with a 5 mm diameter agar disk of the freshly grown Rhizoctonia pathogen, mycelial side facing the medium, and sealed with stretched Parafilm® M (Fisher Scientific). The plates were incubated in the dark at room temperature and when the pathogen reached to the edge of the plates in the control treatment (soybean oil), radial measurement of fungal growth in plates treated with PEs were recorded by taking three measurements from each plate. The experiment was repeated one more time. The percent mycelial growth inhibition (MGI) due to PE was calculated using the following formula: […] where dc=Avg. radial growth in mm of pathogen in control plate; dt=avg. radial growth in mm of pathogen in treated plate.
# [5] = cucumber, 0.3 % of PE in soil (3000 ppm)
smiles,measurement,setting,value
C=CCc1ccc(OC)cc1,% Seed germination (+ PE only),cucumber seeds,75.00%
same,Avg. seed germination (+ PE only),cucumber seeds,9.00
same,% Disease suppression (+ PE + R. solani),Rhizoctonia solani [1],58.33%
same,Avg. seed Germination (+ PE + R. solani),Rhizoctonia solani [1],7.00
same,Effect (fumigation),Rhizoctonia solani [2]; amount oil 15 μL/20 mL plate,S
same,"Effect (poison bed, contact action)",Rhizoctonia solani [2]; amount oil 15 μL/20 mL plate,S
same,Effect (fumigation),Rhizoctonia solani [2]; amount oil 30 μL/20 mL plate,S
same,"Effect (poison bed, contact action)",Rhizoctonia solani [2]; amount oil 30 μL/20 mL plate,S
same,Effect (fumigation),Rhizoctonia solani [2]; amount oil 45 μL/20 mL plate,S
same,"Effect (poison bed, contact action)",Rhizoctonia solani [2]; amount oil 45 μL/20 mL plate,S
same,Effect (fumigation),Rhizoctonia solani [2]; amount oil 60 μL/20 mL plate,S
same,"Effect (poison bed, contact action)",Rhizoctonia solani [2]; amount oil 60 μL/20 mL plate,S
same,Effect (fumigation),Rhizoctonia solani [2]; amount oil 75 μL/20 mL plate,S
same,"Effect (poison bed, contact action)",Rhizoctonia solani [2]; amount oil 75 μL/20 mL plate,S
same,Effect (fumigation),Rhizoctonia solani [2]; amount oil 150 μL/20 mL plate,S
same,"Effect (poison bed, contact action)",Rhizoctonia solani [2]; amount oil 150 μL/20 mL plate,S
same,Fungicidal vs fungistatic nature,"Rhizoctonia solani [2]; in vitro, fumigation and contact action",fungistatic
same,Fumig1 % inhibition,Rhizoctonia solani [3]; amount oil 15 μL/20 mL plate,95%
same,Fumig2 % inhibition,Rhizoctonia solani [3]; amount oil 15 μL/20 mL plate,97%
same,Fumig1 % inhibition,Rhizoctonia solani [3]; amount oil 30 μL/20 mL plate,97%
same,Fumig2 % inhibition,Rhizoctonia solani [3]; amount oil 30 μL/20 mL plate,102%
same,Fumig1 % inhibition,Rhizoctonia solani [3]; amount oil 45 μL/20 mL plate,97%
same,Fumig2 % inhibition,Rhizoctonia solani [3]; amount oil 45 μL/20 mL plate,102%
same,Fumig1 % inhibition,Rhizoctonia solani [3]; amount oil 60 μL/20 mL plate,97%
same,Fumig2 % inhibition,Rhizoctonia solani [3]; amount oil 60 μL/20 mL plate,100%
same,Fumig1 % inhibition,Rhizoctonia solani [3]; amount oil 75 μL/20 mL plate,98%
same,Fumig2 % inhibition,Rhizoctonia solani [3]; amount oil 75 μL/20 mL plate,103%
same,Fumig1 % inhibition,Rhizoctonia solani [3]; amount oil 150 μL/20 mL plate,99%
same,Fumig2 % inhibition,Rhizoctonia solani [3]; amount oil 150 μL/20 mL plate,103%
same,"Inhibition of R. solani growth by fumigation action, in words",Rhizoctonia solani [3],potent inhibitors
same,PoisonB1 % inhibition,Rhizoctonia solani [4]; amount oil 15 μL/20 mL plate,94%
same,PoisonB2 % inhibition,Rhizoctonia solani [4]; amount oil 15 μL/20 mL plate,13%
same,PoisonB1 % inhibition,Rhizoctonia solani [4]; amount oil 30 μL/20 mL plate,100%
same,PoisonB2 % inhibition,Rhizoctonia solani [4]; amount oil 30 μL/20 mL plate,56%
same,PoisonB1 % inhibition,Rhizoctonia solani [4]; amount oil 45 μL/20 mL plate,100%
same,PoisonB2 % inhibition,Rhizoctonia solani [4]; amount oil 45 μL/20 mL plate,92%
same,PoisonB1 % inhibition,Rhizoctonia solani [4]; amount oil 60 μL/20 mL plate,100%
same,PoisonB2 % inhibition,Rhizoctonia solani [4]; amount oil 60 μL/20 mL plate,100%
same,PoisonB1 % inhibition,Rhizoctonia solani [4]; amount oil 75 μL/20 mL plate,100%
same,PoisonB2 % inhibition,Rhizoctonia solani [4]; amount oil 75 μL/20 mL plate,100%
same,PoisonB1 % inhibition,Rhizoctonia solani [4]; amount oil 150 μL/20 mL plate,100%
same,PoisonB2 % inhibition,Rhizoctonia solani [4]; amount oil 150 μL/20 mL plate,100%
same,"Inhibition of R. solani growth by contact (poison bed assay), in words",Rhizoctonia solani [4],potent inhibitors
CC=Cc1ccc(OC)cc1 [Anethole],% Seed germination (+ PE only),cucumber seeds; [5],75.00%
same,Avg. seed germination (+ PE only),cucumber seeds; [5],9.00
same,% Disease suppression (+ PE + R. solani),Rhizoctonia solani [1],58.33%
same,Avg. seed Germination (+ PE + R. solani),Rhizoctonia solani [1],7.00
same,Effect (fumigation),Rhizoctonia solani [2]; amount oil 15 μL/20 mL plate,S
same,"Effect (poison bed, contact action)",Rhizoctonia solani [2]; amount oil 15 μL/20 mL plate,S
same,Effect (fumigation),Rhizoctonia solani [2]; amount oil 30 μL/20 mL plate,S
same,"Effect (poison bed, contact action)",Rhizoctonia solani [2]; amount oil 30 μL/20 mL plate,S
same,Effect (fumigation),Rhizoctonia solani [2]; amount oil 45 μL/20 mL plate,S
same,Effect (fumigation),Rhizoctonia solani [2]; amount oil 60 μL/20 mL plate,S
same,Effect (fumigation),Rhizoctonia solani [2]; amount oil 75 μL/20 mL plate,S
same,Effect (fumigation),Rhizoctonia solani [2]; amount oil 150 μL/20 mL plate,S
same,Fungicidal vs fungistatic nature at higher concentrations,"Rhizoctonia solani [2]; in vitro, higher concentrations",fungicidal
same,Fumig1 % inhibition,Rhizoctonia solani [3]; amount oil 15 μL/20 mL plate,99%
same,Fumig2 % inhibition,Rhizoctonia solani [3]; amount oil 15 μL/20 mL plate,90%
same,Fumig2 % inhibition,Rhizoctonia solani [3]; amount oil 30 μL/20 mL plate,85%
same,Fumig2 % inhibition,Rhizoctonia solani [3]; amount oil 45 μL/20 mL plate,86%
same,Fumig2 % inhibition,Rhizoctonia solani [3]; amount oil 60 μL/20 mL plate,89%
same,Fumig2 % inhibition,Rhizoctonia solani [3]; amount oil 75 μL/20 mL plate,97%
same,Fumig2 % inhibition,Rhizoctonia solani [3]; amount oil 150 μL/20 mL plate,102%
same,"Inhibition of R. solani growth by fumigation action, in words",Rhizoctonia solani [3],potent inhibitors
same,PoisonB1 % inhibition,Rhizoctonia solani [4]; amount oil 15 μL/20 mL plate,100%
same,PoisonB2 % inhibition,Rhizoctonia solani [4]; amount oil 15 μL/20 mL plate,100%
same,PoisonB1 % inhibition,Rhizoctonia solani [4]; amount oil 30 μL/20 mL plate,100%
same,PoisonB2 % inhibition,Rhizoctonia solani [4]; amount oil 30 μL/20 mL plate,100%
same,PoisonB1 % inhibition,Rhizoctonia solani [4]; amount oil 45 μL/20 mL plate,100%
same,PoisonB2 % inhibition,Rhizoctonia solani [4]; amount oil 45 μL/20 mL plate,100%
same,PoisonB1 % inhibition,Rhizoctonia solani [4]; amount oil 60 μL/20 mL plate,100%
same,PoisonB2 % inhibition,Rhizoctonia solani [4]; amount oil 60 μL/20 mL plate,100%
same,PoisonB1 % inhibition,Rhizoctonia solani [4]; amount oil 75 μL/20 mL plate,100%
same,PoisonB2 % inhibition,Rhizoctonia solani [4]; amount oil 75 μL/20 mL plate,100%
same,PoisonB1 % inhibition,Rhizoctonia solani [4]; amount oil 150 μL/20 mL plate,100%
same,PoisonB2 % inhibition,Rhizoctonia solani [4]; amount oil 150 μL/20 mL plate,100%
same,"Inhibition of R. solani growth by contact (poison bed assay), in words",Rhizoctonia solani [4],potent inhibitors
C=CCc1ccc(O)c(OC)c1 [Eugenol],Avg. seed germination (+ PE only),cucumber seeds; [5],10.00
same,% Disease suppression (+ PE + R. solani),Rhizoctonia solani [1],44.42%
same,Avg. seed Germination (+ PE + R. solani),Rhizoctonia solani [1],5.33
